This is an account of results in patent US12077503B2, “Substituted cyclic amides and their use as herbicides” (FMC CORPORATION, priority 2015, dated 2024).

For data set [1], the system named is Kochia (Kochia scoparia). Briefly: Test A preemergence. In kind it is in vivo. The note with it: Bassia scoparia, pre-emergence, 240 h, preemergence, 0 to 100 scale where 0 is no effect and 100 is complete control, read-out: Kochia plant response rating; for pest or weed control at 125 g/ha: 125 g ai/ha, approx. 10 d; for pest or weed control at 500 g/ha: 500 g ai/ha. Summed up: (§1)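 Treatment is preemergence as a directed soil spray after planting, or postemergence at the one- to two-leaf stage, with test chemical in a non-phytotoxic solvent mixture plus surfactant. Plants stay in the greenhouse about 10 d before visual injury scoring on a 0 to 100 scale versus untreated controls.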

Data set [2] concerns barnyardgrass (Echinochloa crus-galli). In words: Test A preemergence. It counts as in vivo. The following applies: Echinochloa crus-galli, pre-emergence, 240 h, preemergence, 0 to 100 scale where 0 is no effect and 100 is complete control, read-out: Barnyardgrass plant response rating; for pest or weed control at 125 g/ha: 125 g ai/ha, approx. 10 d; for pest or weed control at 500 g/ha: 500 g ai/ha. In short, it runs like this:
as §1

In data set [3] the test system is giant foxtail (Setaria faberii). In words: Test A preemergence. In kind it is in vivo. The following applies: Setaria faberi, pre-emergence, 240 h, preemergence, 0 to 100 scale where 0 is no effect and 100 is complete control, read-out: Foxtail, Giant plant response rating; for pest or weed control at 125 g/ha: 125 g ai/ha, approx. 10 d; for pest or weed control at 500 g/ha: 500 g ai/ha. Summed up: as §1

Data set [4] relates to pigweed (Amaranthus retroflexus). In words: Test A preemergence. In kind it is in vivo. The following applies: Amaranthus retroflexus, pre-emergence, 240 h, preemergence, 0 to 100 scale where 0 is no effect and 100 is complete control, read-out: Pigweed plant response rating; for pest or weed control at 125 g/ha: 125 g ai/ha, approx. 10 d; for pest or weed control at 500 g/ha: 500 g ai/ha.

Data set [5] concerns ragweed (common ragweed, Ambrosia elatior). Briefly: Test A preemergence. In kind it is in vivo. The following applies: Ambrosia artemisiifolia, pre-emergence, 240 h, preemergence, 0 to 100 scale where 0 is no effect and 100 is complete control, read-out: Ragweed plant response rating; for pest or weed control at 125 g/ha: 125 g ai/ha, approx. 10 d; for pest or weed control at 500 g/ha: 500 g ai/ha. Summed up:
as §1

By melting point is commonly meant the temperature of the solid-liquid transition. Turning to `CN1CC(c2cccc(Br)c2)C(C(=O)Nc2ccccc2F)C1=O` (stereo not shown) [Compound 1132], the melting point was 142 to 146 °C. For the same molecule, in data set [1], the pest or weed control at 125 g/ha was found to be 0% and the pest or weed control at 500 g/ha was determined as 0%. In addition, in data set [2], the pest or weed control at 125 g/ha stood at 90% and the pest or weed control at 500 g/ha was determined as 90%. Further, in data set [3], the pest or weed control at 125 g/ha was determined as 100% and the pest or weed control at 500 g/ha was found to be 100%. Further, in data set [4], the pest or weed control at 125 g/ha is 0% and the pest or weed control at 500 g/ha turned out to be 0%. In data set [5], the pest or weed control at 125 g/ha turned out to be 0% and the pest or weed control at 500 g/ha was 0%.
Turning to `O=C1NC[C@H](c2ccc(F)c(OC(F)(F)C(F)(F)Br)c2)[C@H]1C(=O)Nc1ccccc1F` [Compound 1134], the melting point lay within 133 to 137 °C. For the same molecule, in data set [1], the pest or weed control at 125 g/ha was determined as 50% and the pest or weed control at 500 g/ha came to 60%. Besides, in data set [2], the pest or weed control at 125 g/ha came to 30% and the pest or weed control at 500 g/ha turned out to be 80%. In data set [3], the pest or weed control at 125 g/ha worked out at 70% and the pest or weed control at 500 g/ha was determined as 90%. Further, in data set [4], the pest or weed control at 125 g/ha came to 0% and the pest or weed control at 500 g/ha was found to be 30%. In data set [5], the pest or weed control at 125 g/ha was 0% and the pest or weed control at 500 g/ha stood at 70%.
